Experimental data published in patent US20210395327A1, “Growth Hormone-Releasing Hormone Antagonists and Uses Thereof” (United States Government As Represented By The Department …, priority 2019, published 2021).
Entries after “also recorded” stand apart in the source; their conditions may differ. Non-standard residues stand in square brackets, D forms with d. Residues, ends and D or L forms follow the SMILES beside them. *: point of attachment. Phe(F5) = N[C@@H](Cc1c(F)c(F)c(F)c(F)c1F)C(=O)O; hArg = N=C(N)NCCCC[C@H](N)C(=O)O; 12Ado = NCCCCCCCCCCCC(=O)O; Nle = CCCC[C@H](N)C(=O)O; Orn = NCCC[C@H](N)C(=O)O; Abu = CC[C@H](N)C(=O)O; PhAc = O=C(Cc1ccccc1)*

Tested on: bleomycin-induced lung inflammation and fibrosis
Assay: Bleomycin mouse model, lung histopathology scores
Type: in vivo, C57Bl/6J mice
Conditions: bleomycin-treated mice
Description: Abstract. Purpose. Growth hormone-releasing hormone (GHRH) is a 44-amino acid peptide that regulates growth hormone (GH) secretion. It was tested whether a GHRH receptor (GHRH-R) antagonist, MIA-602, would inhibit bleomycin-induced lung inflammation and/or fibrosis in C57Bl/6J mice. Methods. It was tested whether MIA-602 (5 μg or vehicle given subcutaneously [SC] on days 1-21) would decrease lung inflammation (at day 14) and/or fibrosis (at day 28) in mice treated with intraperitoneal (IP) bleomycin (0.8 units on days 1, 3, 7, 10, 14 and 21). […] Results. Inflammation (histopathologic scores assessed blindly) was less evident in mice treated with MIA-602 for 14 days. […] GHRH-R antagonist increased basal and maximal oxygen consumption of cultured lung fibroblasts. […] Conclusions. MIA-602 reduced lung inflammation and fibrosis due to bleomycin.
Experimental animals. 8-week old C57Bl/6J male mice (The Jackson Laboratory, Bar Harbor, Me.) were used in these experiments. Mice weighed about 26 grams at the start. Mice were randomly allocated to the experimental groups and housed in identical filter top cages in a ventilated rack. Mice were exposed to a 12-hour light/dark cycle and had free access to standard laboratory chow and water.
Bleomycin and GHRH-R antagonist treatment. Mice were treated with 0.8 units of bleomycin (Bleomycin for Injection USP, Hospira, Lake Forest, Ill.) intraperitoneally (IP) on days 1, 3, 7, 10, 14 and 21 (Collins S, Chan-Li Y, Oh M, Vigeland C, Limjunyawong N, Mitzner W, Powell J D, Horton M R (2016). JCI Insight 1(4):1-13). Mice (randomly assigned) were simultaneously treated subcutaneously (sc) with MIA-602 (5 μg/day) or its vehicle (100 μL/day). MIA-602 was dissolved in DMSO (ACS grade; Sigma-Aldrich) and diluted 1:500 in normal saline for daily sc injection on days 0-21.
Tissue preparations. Mice were killed by CO2 inhalation before any treatment, or on days 14 or 28 for micro-CT scans of lungs and harvesting of lung tissue (Vande Vel de G, Poelmans J, De Langhe E, Hillen A, Vanoirbeek J, Himmelreich U, Lories R (2016). Dis Model Mech 9:91). The right mainstem bronchus was ligated and the right lung removed and frozen at −80° C. for hydroxyproline (HP) assays. The left lung was filled with 10% buffered formalin at […] cm H2O pressure, the bronchus ligated, and the lung fixed in formalin. Fixed lungs were embedded in wax and 5 μm sections stained with hematoxylin and eosin (H&E) or Masson's trichrome stain.
Lung histopathology. Fibrosis was quantified in trichrome-stained sections using a modification of the Ashcroft score that describes grades of fibrosis. Inflammation in lung tissue was quantified in H&E stained sections (Hubner R, Gitter W, El Mokhtari N, Mathiak M, Both M, Bolte H, Freitag-Wolf S, Bewig B (2008). Biotechniques 44:507-517).
Data analysis. Data are reported as arithmetic means±SEM or SD as indicated. Confidence intervals (5-95%) and ranges were used to describe histopathological scores. ANOVA followed by Dunnett's test or the Bonnferoni correction was used for multiple comparisons with a control or among groups (Kusuoka H, Hoffman J (2002). Circ Res 91:662-671). At least six mice were planned to be available at each time point in each group, so that there would be sufficient power to detect a 20% change in lung hydroxyproline given an assumed coefficient of variance of 0.2. P≤0.05 was considered significant.

## CCCC[C@H](NC(=O)[C@@H](NC(=O)[C@H](CC(=O)O)NC(=O)[C@H](CCC(N)=O)NC(=O)[C@H](CC(C)C)NC(=O)[C@H](CC(C)C)NC(=O)[C@H](CCCN)NC(=O)[C@H](Cc1c[nH]cn1)NC(=O)[C@H](C)NC(=O)[C@H](CO)NC(=O)[C@H](CC(C)C)NC(=O)[C@H](CCC(N)=O)NC(=O)[C@H](CC)NC(=O)[C@H](CC(C)C)NC(=O)[C@@H](NC(=O)[C@H](CCCN)NC(=O)[C@H](Cc1c[nH]cn1)NC(=O)[C@H](Cc1ccc(OC)cc1)NC(=O)[C@H](CCCCNC(=N)N)NC(=O)[C@H](C)NC(=O)[C@@H](NC(=O)[C@H](Cc1c(F)c(F)c(F)c(F)c1F)NC(=O)[C@@H](NC(=O)[C@H](C)NC(=O)[C@H](CC(=O)O)NC(=O)[C@@H](CCCNC(=N)N)NC(=O)[C@H](Cc1ccc(O)cc1)NC(=O)CCCCCCCCCCCNC(=O)Cc1ccccc1)[C@@H](C)CC)[C@@H](C)O)C(C)C)[C@@H](C)CC)C(=O)N[C@H](CCCNC(=N)N)C(=O)N[C@@H](CCCCNC(=N)N)C(N)=O [MIA-602, PhAC-Ada, Tyr D-Arg, Asp, Ala, Ile, 5FPhe, Thr, Ala, Har, Tyr(Me), His, Orn, Val, Leu, Abu, Gin, Leu, Ser, Ala, His, Om, Leu, Leu, Gin, Asp, Ile; Nle, D-Arg, Har NH2, reference compound] ({PhAc-12Ado}-Y[dR]DAI[Phe(F5)]TA[hArg]Y(Me)H[Orn]VL[Abu]QLSAH[Orn]LLQDI[Nle][dR][hArg]-NH2)
After 14 days, n=4
  lung inflammation histopathologic score, 5%-95% CI: 0.4-1.4
  lung inflammation histopathologic score, range: 0.6-1.2
After 28 days, n=5
  lung fibrosis histopathologic score (modified Ashcroft), 5%-95% CI: 1.1-2.9
  lung fibrosis histopathologic score (modified Ashcroft), range: 1.0-3.0
MIA-602 vs vehicle
  lung fibrosis, histopathology (in words): decreased; also recorded: Less fibrosis appeared to be present
  lung inflammation, histopathology (in words): decreased; also recorded: Less inflammation appeared to be present
